Laboratory results: patent US20150111852A1, “1-Di(sec-butyl)-phosphinoyl-pentane (dapa-2-5) as a topical agent” (priority 2013, published 2015)

Experiments:
[1] = system: oropharynx; experiment: Sensory effects and cold discomfort of compounds given orally in ODT (general evaluation); format: in vivo, human; details: menthol at a dose of 2 mg in an ODT; icilin dose not given
Protocol: The correlation between a chemical's potency at the TRPM8 receptor (measured by the EC50 μM) and potency to evoke sensory events in the oropharynx is complex.
When a test compound is applied to non-keratinizng bodily surfaces (e.g., oropharyngeal surface), it is possible to characterize the resulting sensations.
The sensations are akin to rapid drinking of cold water mixed and equilibrated with ice chips. The intense cold is further accentuated if the drink is acidified, for example, with lemonade. The sensations of dull and intense cold on the surface of the oropharynx can be described as painful, uncomfortable, and aversive. The term “icy cold” is used to describe these adverse intense cold sensations.
Together, these three types of sensations—“icy cold”, coldness in the chest, and systemic coldness—is termed “cold discomfort”. […] The ideal agent must have a circumscribed site of action, and the intensity of the sensation should not cause “icy cold”, coldness in the chest, or systemic chills.

[2] = target: T1, cloned hTRPM8 channel (encoded by the human TRPM8 gene, expressed in CHO cells) (Homo sapiens, UniProt Q7Z2W7); experiment: TRPM8 agonist FLIPR Fluo-8 calcium assay; format: cell-based
T1 construct: host or cells: CHO cells, stably transfected
T1 sequence (Q7Z2W7 whole entry): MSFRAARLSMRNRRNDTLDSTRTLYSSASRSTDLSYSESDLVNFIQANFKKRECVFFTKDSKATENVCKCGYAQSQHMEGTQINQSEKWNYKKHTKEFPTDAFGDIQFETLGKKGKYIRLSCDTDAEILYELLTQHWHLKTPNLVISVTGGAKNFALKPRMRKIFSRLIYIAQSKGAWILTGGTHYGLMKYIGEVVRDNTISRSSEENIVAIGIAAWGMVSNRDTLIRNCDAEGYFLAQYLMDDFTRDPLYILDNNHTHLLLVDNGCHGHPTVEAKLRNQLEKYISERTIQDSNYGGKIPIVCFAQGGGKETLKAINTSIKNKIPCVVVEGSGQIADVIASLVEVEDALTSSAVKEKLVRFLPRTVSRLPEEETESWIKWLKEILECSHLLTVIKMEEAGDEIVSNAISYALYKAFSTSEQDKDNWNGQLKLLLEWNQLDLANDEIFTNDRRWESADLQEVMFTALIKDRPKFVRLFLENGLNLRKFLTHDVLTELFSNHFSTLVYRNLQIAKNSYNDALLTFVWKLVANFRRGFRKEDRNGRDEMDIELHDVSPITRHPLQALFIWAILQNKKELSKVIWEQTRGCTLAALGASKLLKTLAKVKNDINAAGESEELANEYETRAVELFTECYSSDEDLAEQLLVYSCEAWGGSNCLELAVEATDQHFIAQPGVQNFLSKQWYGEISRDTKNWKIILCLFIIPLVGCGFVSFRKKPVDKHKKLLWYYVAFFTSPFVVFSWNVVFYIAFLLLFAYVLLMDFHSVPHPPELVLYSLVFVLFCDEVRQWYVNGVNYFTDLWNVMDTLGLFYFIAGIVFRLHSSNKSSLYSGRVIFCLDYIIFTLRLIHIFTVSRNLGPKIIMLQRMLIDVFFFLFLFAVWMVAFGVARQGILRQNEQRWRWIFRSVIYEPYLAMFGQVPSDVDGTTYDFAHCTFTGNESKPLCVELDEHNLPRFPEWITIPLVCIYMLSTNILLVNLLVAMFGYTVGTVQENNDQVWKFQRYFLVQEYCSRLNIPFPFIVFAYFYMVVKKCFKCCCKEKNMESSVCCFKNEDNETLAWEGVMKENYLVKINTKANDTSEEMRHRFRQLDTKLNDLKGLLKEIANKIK
Protocol: The in vitro effects of test compounds were evaluated on cloned hTRPM8 channel (encoded by the human TRPM8 gene, expressed in CHO cells) using a Fluo-8 calcium kit and a Fluorescence Imaging Plate Reader (FLIPR^TETRA™) instrument.
Test compounds and positive control solutions were prepared by diluting stock solutions in a HEPES-buffered physiological saline (HBPS) solution. The test compound and control formulations were loaded in polypropylene or glass-lined 384-well plates, and placed into the FLIPR instrument (Molecular Devices Corporation, Union City, Calif., USA). The test compounds were evaluated at 4 or 8 concentrations with n=4 replicates per determination. […] The test cells were Chinese Hamster Ovary (CHO) cells stably transfected with human TRPM8 cDNAs.
For the FLIPR^TETRA™ assay, cells were plated in 384-well black wall, flat clear-bottom microtiter plates (Type: BD Biocoat Poly-D-Lysine Multiwell Cell Culture Plate) at approximately 30,000 cells per well. Cells were incubated at 37° C. overnight to reach a near confluent monolayer appropriate for use in a fluorescence assay. The test procedure was to remove the growth media and to add 40 μL of HBPS containing Fluo-8 for 30 min at 37° C. 10 μL of test compound, vehicle, or control solutions in HBPS were added to each well and read for 4 min.
Concentration-response data were analyzed via the FLIPR Control software that is supplied with the FLIPR System (MDS-AT) and fitted to a Hill equation of the following form: […]
where: “Base” is the response at low concentrations of test compound; “Max” is the maximum response at high concentrations; “xhalf” is the EC50, the concentration of test compound producing half-maximal activation; and “rate” is the Hill coefficient. Nonlinear least squares fits were made assuming a simple one-to-one binding model.

[3] = system: dorsal surface of the tongue; details: 6 subjects, filter paper 1×1 cm, 30 sec; cited from earlier work
[4] = target: T2, hNav1.7 (sodium channels) (Homo sapiens, UniProt Q15858); experiment: Patch-clamp in transfected cells, hNav1.7; format: cell-based; details: DAPA-2-5 at 5 μM; positive control lidocaine
T2 construct: expressed in transfected cells
T2 sequence (Q15858 whole entry): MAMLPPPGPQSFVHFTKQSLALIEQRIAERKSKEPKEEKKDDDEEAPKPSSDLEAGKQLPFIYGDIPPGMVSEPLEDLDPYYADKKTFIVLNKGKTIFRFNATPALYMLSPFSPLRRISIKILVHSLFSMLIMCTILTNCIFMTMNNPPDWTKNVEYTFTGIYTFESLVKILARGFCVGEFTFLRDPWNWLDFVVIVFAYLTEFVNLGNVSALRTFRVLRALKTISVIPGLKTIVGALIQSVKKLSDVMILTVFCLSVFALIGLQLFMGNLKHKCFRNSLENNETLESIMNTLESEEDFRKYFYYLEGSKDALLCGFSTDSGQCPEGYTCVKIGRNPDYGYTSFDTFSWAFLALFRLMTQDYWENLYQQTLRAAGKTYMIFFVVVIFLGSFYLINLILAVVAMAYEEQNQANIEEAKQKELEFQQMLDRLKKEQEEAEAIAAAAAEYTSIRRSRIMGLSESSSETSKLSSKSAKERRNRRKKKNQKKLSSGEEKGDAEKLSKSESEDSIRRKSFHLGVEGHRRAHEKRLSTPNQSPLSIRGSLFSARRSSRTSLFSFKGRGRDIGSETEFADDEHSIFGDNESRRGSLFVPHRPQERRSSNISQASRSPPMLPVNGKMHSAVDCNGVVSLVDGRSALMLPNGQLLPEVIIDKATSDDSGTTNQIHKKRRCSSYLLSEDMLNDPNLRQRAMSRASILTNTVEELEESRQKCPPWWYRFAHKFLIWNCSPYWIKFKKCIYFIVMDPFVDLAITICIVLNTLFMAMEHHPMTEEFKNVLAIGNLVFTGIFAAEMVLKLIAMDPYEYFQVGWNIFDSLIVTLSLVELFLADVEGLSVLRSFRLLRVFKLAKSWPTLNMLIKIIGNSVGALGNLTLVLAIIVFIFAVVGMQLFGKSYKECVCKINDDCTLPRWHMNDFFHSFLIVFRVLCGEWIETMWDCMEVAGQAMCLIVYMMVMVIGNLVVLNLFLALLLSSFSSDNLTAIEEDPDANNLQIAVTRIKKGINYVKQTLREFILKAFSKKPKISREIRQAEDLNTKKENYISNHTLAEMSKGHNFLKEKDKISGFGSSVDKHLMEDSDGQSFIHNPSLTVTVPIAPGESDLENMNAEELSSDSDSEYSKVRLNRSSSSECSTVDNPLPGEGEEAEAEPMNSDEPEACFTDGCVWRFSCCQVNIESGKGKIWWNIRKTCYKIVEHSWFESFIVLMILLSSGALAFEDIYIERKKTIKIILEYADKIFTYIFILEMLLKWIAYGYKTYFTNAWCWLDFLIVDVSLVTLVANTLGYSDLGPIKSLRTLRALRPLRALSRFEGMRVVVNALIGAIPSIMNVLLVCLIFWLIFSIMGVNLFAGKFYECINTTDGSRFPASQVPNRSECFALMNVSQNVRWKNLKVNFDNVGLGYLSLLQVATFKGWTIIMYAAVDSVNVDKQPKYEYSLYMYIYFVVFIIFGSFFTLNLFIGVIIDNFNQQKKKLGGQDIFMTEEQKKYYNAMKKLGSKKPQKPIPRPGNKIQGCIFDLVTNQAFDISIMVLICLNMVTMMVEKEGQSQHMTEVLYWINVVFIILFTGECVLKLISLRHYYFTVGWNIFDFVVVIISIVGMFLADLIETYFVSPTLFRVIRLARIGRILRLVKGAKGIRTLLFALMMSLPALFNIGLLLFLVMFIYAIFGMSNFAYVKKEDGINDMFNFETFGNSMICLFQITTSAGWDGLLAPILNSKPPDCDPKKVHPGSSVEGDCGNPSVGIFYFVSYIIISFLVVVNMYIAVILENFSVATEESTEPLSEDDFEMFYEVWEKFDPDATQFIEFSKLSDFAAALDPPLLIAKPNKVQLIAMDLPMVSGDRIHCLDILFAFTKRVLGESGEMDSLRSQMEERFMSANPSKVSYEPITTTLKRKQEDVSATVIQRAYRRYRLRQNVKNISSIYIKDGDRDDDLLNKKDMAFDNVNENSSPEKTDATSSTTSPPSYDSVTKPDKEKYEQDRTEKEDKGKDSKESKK

Row | Structure (SMILES) | sensory effects / side-effects in an ODT [1] | rank in TRPM8 potency among the 21 compounds tested [2] | average threshold for cooling on the tongue [3] | agonist or antagonist activity, hNav1.7 [4]
1 | CC(C)[C@@H]1CC[C@@H](C)C[C@H]1O [Menthol, L-menthol, reference compound] | produced chest discomfort | 16 | 0.25 µg | –
2 | CCN(CC)CC(=O)Nc1c(C)cccc1C [lidocaine, reference compound] | – | – | – | active
